From US10590166B2, “Peptides useable for treating cancer” (Allegro Pharmaceuticals, LLC, priority 2009, dated 2020)
Entries after “also recorded” stand apart in the source; their conditions may differ. Square brackets hold non-standard residues; d marks the D form. Peptide text beside a SMILES is read from it. Cya = N[CH](CS(=O)(=O)O)C(=O)O

What was measured:
[1] = system: human umbilical vein endothelial cells (HUVEC); assay: wound-healing assay with HUVEC on fibronectin coated surface; type: cell-based
Method: To test the anti-adhesive properties of RGCysteic Acid peptides in vitro, a wound-healing assay was performed with human umbilical vein endothelial cells (HUVEC). HUVEC were seeded and allowed to grow to a confluent monolayer on a fibronectin coated surface. A wound (a scratch rift) was created by dragging a small pipette tip across the HUVEC monolayer. The cells were then incubated in fresh growth medium containing the RGCysteic Acid peptide (Compound 1; 10 mM), and the wound area was imaged in five different fields at various time points (0, 4, 8, 12, 16, 20, 24 hours) to determine the kinetics of wound closure. The level of wound closure was quantified by determining the fraction of the original wound area that was re-occupied by HUVEC through cellular adhesion, migration and proliferation.
In control studies, the following peptides were used in place of RGCysteic Acid (Compound 1): cyclic-RGD peptide (1 mM), positive control) and RGE peptide (1 mM, negative control).
The results are shown as a percentage of the original area. The error bars correspond to the standard deviation in wound size across 2-6 independent trials.

CNV mouse model = assay: Suppression of laser-induced choroidal neovascularization, CNV mouse model; type: in vivo; settings: 14 days after laser; for size of CNV lesions: vs vehicle
Method: In this example, Compound 1 was tested to determine whether it CNV in a published mouse model. See, Umeda N, Kachi S, Akiyama H, Zahn G, Vossmeyer D, Stragies R, Campochiaro P., Suppression and Regression of Choroidal Neovascularization by Systemic Administration of an α5β1 Integrin Antagonist: Molecular Pharmacology:2006, 69, 1820-1828.
The study mice had laser-induced rupture of Bruch's membrane followed by an intravitreal injection of a single dose of COMPOUND 1 at the concentration of 1.0 μg/1 μL, 25 μg/1 μL and at 50 μg/1 μL, as well as a vehicle immediately after laser treatment. Fourteen days after laser treatment, the area of CNV was measured by image analysis. […] FIG. 8 is a graph showing total area of neovascularization in a CNV mouse model 14 days after treatment with various doses of Compound 1 and control (vehicle only).

[2] = system: Pigmented New Zealand Rabbits; assay: Ocular toxicity dose escalation, multiple intravitreal injections of Compound 1 (Table E); type: in vivo; settings: up to 3 intravitreal injections of 2.5, 5.0 or 10.0 mg/100 μL
Rabbits = type: in vivo
Method: In this example, the PVD-Inducing Effects of RGD Peptides and Glycyl-Arginyl-Glycyl-Cysteic-Threonyl-Proline-COOH (RG Cysteic Acid Peptide; GRG Cysteic Acid TP; Compound 1) (SEQ ID NO: 2) were compared in rabbits. The protocol for this study was as follows:
Animal Model • a) 20 Male and Female Rabbits • b) Weighing approximately 1.5-2.5 kg. • c) Divide into 2 groups
i) 10 Rabbits were injected intravitreally with 2.5% RGD solution at pH=6.5 • a) 10 Right Eye injected with 2.5% RGD solution • b) 5 Left Eye used as BSS Control • c) 5 Left Eyes injected with 2.5% RGD+0.02% EDTA at pH=6.5
ii) 10 Rabbits were injected intravitreally with 2.5% RGCysteic solution at pH=6.5 • a) 10 Right Eye injected with 2.5% RGCysteic solution at pH=6.5 • b) 10 Left Eye injected with 2.5% RGCysteic solution+0.02% EDTA at pH=6.5
Active Chemicals • d) Sodium EDTA—99.0-100.5% from Spectrum Chemical Corp. • e) RG Cysteic Acid—cGMP supplier (Purity>98%). • f) RGD—cGMP supplier (Purity>98%). • g) BSS solution
Both the RG Cysteic Acid, RGD, RG Cysteic Acid+Sodium EDTA, RGD+Sodium EDTA, and the BSS solutions were injected into the vitreous cavity 24 hours prior to surgery. The rabbits ([…]) were anesthetized with an intramuscular injection of 2.0 ml of 1:1 combination of xylazine (100 mg/ml) and Ketamine hydrochloride (100 mg/ml). Pupils are dilated with topical cyclopentolate hydrochloride 1% and Phenylephrine hydrochloride 10%.
All animals were initially examined with slit lamp biomicroscopy and indirect ophthalmoscopy to exclude any animals with pre-existing vitreoretinal abnormalities. The intravitreal injection of 0.10 cc was administered 2 mm posterior to the limbus in the supranasal quadrant using a 30-gauge needle attached to a 1.0 cc syringe. Care must be taken to avoid damage to the lens or retina.
Twenty four hours following injection and immediately before initiation of a mechanical vitrectomy, a B-scan ultrasonography was performed to determine the status of the posterior vitreous and also the liquefaction of the vitreous. A two-port pars plana vitrectomy was performed using an infusion fiberoptic and a vitreous cutter attached to a vitrectomy unit. Following a 30 second core vitrectomy, the vitreous cutter was directed to the peripapillary retinal surface where, using low aspiration (<30 mmHg) a separation of the posterior cortical vitreous from the retinal surface was attempted in 4 quadrants. The sclerotomies were sutured and a postoperative B-Scan ultrasonography was carried out to determine the presence and extent of any PVD present in each quadrant. The animals were euthanized with intracardiac sodium pentobarbital injections, and the eyes were immediately enucleated.
; • Grade 0. a) No detachment of the posterior Vitreous is observed. • b) Vitreous Liquefaction • Grade 1. a) Consists of eyes in which the vitreous is detached in 2 or less quadrants. • b) Vitreous Liquefaction • Grade 2. a) Consists of eyes in which the vitreous is detached in 3 or more quadrants, but with remaining focal attachments along the medullary rays • b) Vitreous Liquefaction • Grade 3. a) Consists of eyes in which the vitreous is totally detached from the retinal surface • b) Vitreous Liquefaction
Care was taken to avoid damage to the adjacent retina and lens. The eyes were immersed in 2% paraformaldehyde plus 2.5% glutaraldehyde for a minimum of 24 hours at 4 degrees Celsius. A unique posterior calotte was removed, dehydrated in methanol, and dried in carbon dioxide to the critical point, sputter-coated in gold and photographed using the scanning electron microscope.

[3] = Table B, single intravitreal 2.5 mg/100 μL, 24 hour follow up
[4] = Table B, single intravitreal 2.5 mg/100 μL, 24 hour follow up, share of eyes

Structure (SMILES): CC(O)C(NC(=O)C(CS(=O)(=O)O)NC(=O)CNC(=O)C(CCCNC(=N)N)NC(=O)CN)C(=O)N1CCCC1C(=O)O (centres unmarked) [Compound 1, Glycinyl-Arginyl-Glycinyl-Cysteic-Threonyl-Proline-COOH] (H-GRG[Cya]TP-OH; configuration not given here)
- inhibition of cell adhesion ([1]; HUVEC wound healing model, in 12 hours): 74%
- inhibition of HUVEC wound healing ([1]; after 24 hours, Compound 1 10 mM, control peptides 1 mM): 70%
- apoptosis of the HUVEC cells ([1]; wound healing assay): without apoptosis
- size of CNV lesions (CNV mouse model; single intravitreal 1.0 μg/1 μL): somewhat smaller
- reduction in CNV compared to vehicle treated eyes (CNV mouse model; single intravitreal 25 μg/1 μL, statistically significant): 43%
- size of CNV lesions (CNV mouse model; single intravitreal 50 μg/1 μL): somewhat smaller
- Tonometry, average for treated eyes [2]: 12.7 mmHg average
- Ocular toxicity: RPE toxicity ([2]; sacrifice Day 7, 37 or 90): No RPE toxicity
- Ocular toxicity: cataract formation ([2]; sacrifice Day 7, 37 or 90): No cataract
- Ocular toxicity: exudates ([2]; sacrifice Day 7, 37 or 90): No exudates
- Ocular toxicity: inflammation ([2]; sacrifice Day 7, 37 or 90): No inflammation
- Ocular toxicity: retinal hemorrhage ([2]; sacrifice Day 7, 37 or 90): No retinal
- Ocular toxicity: retinal tears, breaks or detachments ([2]; sacrifice Day 7, 37 or 90): No retinal tears,
- Ocular toxicity: retinal vascular compromise ([2]; sacrifice Day 7, 37 or 90): No retinal vascular
- PVD grade (postoperative B-scan) (Rabbits; 2.5% intravitreal 0.10 cc, OD treated eye, 24 hours after injection, one value per animal, listed as RG Cysteic Acid): Grade 3 -; also recorded: Grade 2 - (Consists of eyes in which the vitreous is detached in 3 or more quadrants, but with remaining focal attachments along the medullary rays); also recorded: Grade 1 - (Consists of eyes in which the vitreous is detached in 2 or less quadrants.)
- liquefaction of the vitreous (Rabbits; 2.5% intravitreally, 24 hours): completely liquefied
- separation of the vitreous from the retina (Rabbits; 2.5% intravitreally, in 24 hours): complete separation of the vitreous from the retina
- Ocular toxicity: RPE toxicity (Rabbits; [3]): No RPE toxicity
- Ocular toxicity: cataract formation (Rabbits; [3]): No cataract formation
- Ocular toxicity: exudates (Rabbits; [3]): No exudates
- Ocular toxicity: inflammation (Rabbits; [3]): No inflammation
- Ocular toxicity: retinal hemorrhage (Rabbits; [3]): No retinal hemorrhage
- Ocular toxicity: retinal tears, breaks or detachments (Rabbits; [3]): No retinal tears, breaks
- Ocular toxicity: retinal vascular compromise (Rabbits; [3]): No retinal vascular
- Complete Liquefaction (Rabbits; [4]): PVD - 80% Complete
- Total PVD (Rabbits; [4]): Group 1: - 60% Total
- activity in inducing complete PVD and liquefying the vitreous, compared with RGD (Rabbits; rabbits, 2.5% intravitreal): equal or slightly better than that of RGD
- activity when administered with 0.02% Sodium Edetate (Rabbits; rabbits, 2.5% intravitreal): not altered
- adverse effects from the intravitreal injection (Rabbits; rabbits, 2.5% intravitreal): no adverse effects or adverse safety effects
